From US9458173B2, “Amides of 2-amino-4-arylthiazole compounds and their salts” (GLENMARK PHARMACEUTICALS S.A., priority 2012, dated 2016)
≈ marks a conversion by molar mass, not a printed value. Where two headings read alike, the source gives them in different places.

Experiments:
Assay type in all cases: physicochemical
[1] = Solubility studies, shake flask method with HPLC quantification; conditions: 37° C., 200 rpm, about 15 minutes; for solubility: thermodynamic from solid, read-out: Solubility (Conc.)
Protocol: • Shake flask method was used to determine the solubility of compound in various bio-relevant media of different pH and quantification is done using HPLC method. II. Experimental:
Following bio-relevant media and water were selected to study the solubility behaviour. • i. FaSSIF (Fasted state simulated intestinal fluid) of pH 6.5 • ii. FeSSIF (Fed state simulated intestinal fluid) of pH 5.0 • iii. Water.
Procedure: Test substance (1 mg) was taken in a test tube and medium [FaSSIF (pH 6.5) or FeSSIF (pH 5.0) or water] was added in the increment of 1 ml with shaking. After completion of addition of 10 ml of media, test tubes containing sample solution were put on a mechanical shaker set at 37° C. and 200 rpm for shaking up to about 15 minutes. After shaking, the content of each flask, it was filtered through […] filter. The filtered solution was analysed using HPLC for quantification. A sample solution of 1 mg in 10 ml of DMSO was used as reference standard for quantifying dissolved test substance in each media. The solubility in each media is expressed as μg/ml (Table-10).

[2] = Stability studies of salts under storage, degradation products by HPLC
From the text: The salts of compound of formula II were stored under conditions as shown in Table 11 and a total amount of degradation products (related substances) and single maximum impurity formed during storage was estimated according to following protocol:
Apparatus: A High Performance Liquid Chromatograph equipped with quaternary gradient pumps, variable wavelength UV detector attached with data recorder and Integrator software or equivalent.
Column: Phenomenex Prodigy, 250 mm×4.6 mm, 5.0 or equivalent
Mobile phase: A: Buffer B: Acetonitrile (for sodium salt), acetonitrile:methanol (6:4) for potassium salt
Buffer: 0.1% Formic acid in water
Detection wavelength: UV 265 nm
Column temperature: 40° C.
10 mg of compound was weighed and transferred it into a 20 mL volumetric flask. Dimethylsulfoxide was added and it was sonicated to dissolve. The diluent was added to make up the solution to the mark of the flask.
The equal volumes of blank (diluent) and test solution were separately injected into the liquid chromatograph. The responses were recorded eliminating the peaks due to blank and the chromatographic purity by area was calculated by normalization method.
The salts of the compound of formula II were stored under conditions as shown in below table and a total amount of degradation products (related substances) as well as single maximum impurity formed during storage was estimated by HPLC. The material was packed in inner clear polythene bag under nitrogen lined with black polythene bag, covered with triple laminated aluminium bag placed in HDPE drum and subjected to the conditions mentioned in the table 11.

[3] = Dissolution studies in suspension form; conditions: suspension: 10 mg active, Kollidon VA 64 40 mg, SLS 20 mg, purified water; batches 1A, 2A, 3A
Protocol: Suspension of compound of formula (II) and its salts with same composition was prepared using conventional homogenization technique. The % drug release was determined by comparing with 10 mg equivalent suspension (after sonication).

[4] = Hygroscopicity study, moisture content by Karl Fischer method; conditions: for moisture content, initial value: before exposure to humidity; for moisture content increase: 25° C., 48 hrs
Protocol: Hygroscopicity study was performed under the following conditions: The material was exposed to relative humidity (for example 60%, 80%, 90%) at 25° C. condition. The material was thinly spread in dried and pre-weighed Petri plate. The plate was exposed to the relative humidity conditions at 25° C. The Petri plate was withdrawn at regular intervals and weighed. Withdrawn samples were tested for description and moisture content by Karl Fischer method.

[5] = storage condition 1: 25 ± 2° C., 60 ± 5% RH, 0 months
[6] = storage condition 1: 25 ± 2° C., 60 ± 5% RH, 1 month
[7] = storage condition 1: 25 ± 2° C., 60 ± 5% RH, 2 months
[8] = storage condition 1: 25 ± 2° C., 60 ± 5% RH, 3 months
[9] = storage condition 1: 25 ± 2° C., 60 ± 5% RH, 6 months
[10] = storage condition 1: 25 ± 2° C., 60 ± 5% RH, 9 months
[11] = storage condition 2: 30 ± 2° C., 65 ± 5% RH, 0 months
[12] = storage condition 2: 30 ± 2° C., 65 ± 5% RH, 6 months
[13] = storage condition 3: 40 ± 2° C., 75 ± 5% RH, 0 months
[14] = storage condition 3: 40 ± 2° C., 75 ± 5% RH, 1 month
[15] = storage condition 3: 40 ± 2° C., 75 ± 5% RH, 2 months
[16] = storage condition 3: 40 ± 2° C., 75 ± 5% RH, 3 months
[17] = storage condition 3: 40 ± 2° C., 75 ± 5% RH, 6 months
[18] = storage condition 2: 30 ± 2° C., 65 ± 5% RH, 1 month
[19] = storage condition 2: 30 ± 2° C., 65 ± 5% RH, 2 months
[20] = storage condition 2: 30 ± 2° C., 65 ± 5% RH, 3 months

With `Cn1c(=O)c2c(CC(=O)Nc3nc(-c4ccc(F)c(C(F)(F)F)c4F)cs3)csc2n(C)c1=O.[K]` [Potassium salt of compound (II), potassium salt of N-{4-[2,4-difluoro-3-(trifluoromethyl)phenyl]-1,3-thiazol-2-yl}-2-(1,3-dimethyl-2,4-dioxo-1,2,3,4-tetrahydrothieno[2,3-d]pyrimidin-5-yl)acetamide] the “Solubility (Conc.)” value ([1]; FaSSIF (pH 6.5)) was 5.91 µg/mL, the “Solubility (Conc.)” value ([1]; FeSSIF (pH 5.0)) was 5.53 µg/mL and the “Solubility (Conc.)” value ([1]; Water) was 0.49 µg/mL. It also gave a Related substances [2, 5] of 0.44%, a single max. impurity [2, 5] of 0.26% and a Related substances [2, 6] of 0.45%. The single max. impurity [2, 6] was 0.27%, the Related substances [2, 7] was 0.31% and the single max. impurity [2, 7] was 0.19%. For the same compound, the Related substances [2, 8] was 0.43%, the single max. impurity [2, 8] was 0.26% and the Related substances [2, 9] was 0.35%. It also gave a single max. impurity [2, 9] of 0.21%, a Related substances [2, 10] of 0.35% and a single max. impurity [2, 10] of 0.21%. For the same compound, the Related substances [2, 11] was 0.44%, the single max. impurity [2, 11] was 0.26% and the Related substances [2, 12] was 0.51%. For the same compound, the single max. impurity [2, 12] was 0.31%, the Related substances [2, 13] was 0.44% and the single max. impurity [2, 13] was 0.26%. For the same compound, the Related substances [2, 14] was 0.44%, the single max. impurity [2, 14] was 0.27% and the Related substances [2, 15] was 0.32%. It also gave a single max. impurity [2, 15] of 0.20%, a Related substances [2, 16] of 0.46% and a single max. impurity [2, 16] of 0.28%. For the same compound, the Related substances [2, 17] was 0.52%, the single max. impurity [2, 17] was 0.32% and the “% drug release after 15 minutes” value [3] was 6.3%. The “moisture content after gradual increase” value ([4]; 48 hrs at 25° C./60% RH, listed as potassium salt of compound of formula (II)) was 3.5%, the “moisture content after gradual increase” value ([4]; 48 hrs at 25° C./80% RH, listed as potassium salt of compound of formula (II)) was 6.6% and the “moisture content after gradual increase” value ([4]; 48 hrs at 25° C./90% RH, listed as potassium salt of compound of formula (II)) was 16.0%. For the same compound, the “moisture content, initial value” ([4]; listed as potassium salt of compound of formula (II)) was 0.80%, the moisture content increase ([4]; relative humidity of 60%) was at most 2.7% and the moisture content increase ([4]; relative humidity of 80%) was at most 5.8%. The moisture content increase ([4]; relative humidity of 90%) was at most 15.2%.
With `Cn1c(=O)c2c(CC(=O)[N-]c3nc(-c4ccc(F)c(C(F)(F)F)c4F)cs3)csc2n(C)c1=O.[Na+]` [Sodium salt of compound (II)] the “Solubility (Conc.)” value ([1]; FaSSIF (pH 6.5)) was 1.07 µg/mL, the “Solubility (Conc.)” value ([1]; FeSSIF (pH 5.0)) was 0.24 µg/mL and the “Solubility (Conc.)” value ([1]; Water) was 0.13 µg/mL. The Related substances [2, 5] was 0.22%, the single max. impurity [2, 5] was 0.05% and the Related substances [2, 6] was 0.28%. For the same compound, the single max. impurity [2, 6] was 0.06%, the Related substances [2, 7] was 0.36% and the single max. impurity [2, 7] was 0.10%. The Related substances [2, 8] was 0.38%, the single max. impurity [2, 8] was 0.11% and the Related substances [2, 9] was 0.51%. It also gave a single max. impurity [2, 9] of 0.23%, a Related substances [2, 10] of 0.75% and a single max. impurity [2, 10] of 0.39%. The Related substances [2, 11] was 0.22%, the single max. impurity [2, 11] was 0.05% and the Related substances [2, 18] was 0.30%. The single max. impurity [2, 18] was 0.05%, the Related substances [2, 19] was 0.40% and the single max. impurity [2, 19] was 0.14%. The Related substances [2, 20] was 0.47%, the single max. impurity [2, 20] was 0.18% and the Related substances [2, 12] was 0.71%. The single max. impurity [2, 12] was 0.35%, the Related substances [2, 13] was 0.22% and the single max. impurity [2, 13] was 0.05%. It also gave a Related substances [2, 14] of 0.54%, a single max. impurity [2, 14] of 0.22% and a Related substances [2, 15] of 0.70%. For the same compound, the single max. impurity [2, 15] was 0.36%, the Related substances [2, 16] was 0.77% and the single max. impurity [2, 16] was 0.39%. For the same compound, the Related substances [2, 17] was 1.0%, the single max. impurity [2, 17] was 0.58% and the “% drug release after 15 minutes” value [3] was 1.2%.
For `Cn1c(=O)c2c(CC(=O)Nc3nc(-c4ccc(F)c(C(F)(F)F)c4F)cs3)csc2n(C)c1=O.[K]` [Potassium salt of N-{4-[2,4-difluoro-3-(trifluoromethyl)phenyl]-1,3-thiazol-2-yl}-2-(1,3-dimethyl-2,4-dioxo-1,2,3,4-tetrahydrothieno[2,3-d]pyrimidin-5-yl)acetamide in crystalline form], the “moisture content after gradual increase” value ([4]; 48 hrs at 25° C./60% RH) was “about 3.5%”, the “moisture content after gradual increase” value ([4]; 48 hrs at 25° C./80% RH) was “about 6.6%” and the “moisture content after gradual increase” value ([4]; 48 hrs at 25° C./90% RH) was “about 16.0%”. For the same compound, the “moisture content, initial value” [4] was “about 0.80%”.
In the case of `Cn1c(=O)c2c(CC(=O)Nc3nc(-c4ccc(F)c(C(F)(F)F)c4F)cs3)csc2n(C)c1=O` [Compound (II), N-{4-[2,4-difluoro-3-(trifluoromethyl)phenyl]-1,3-thiazol-2-yl}-2-(1,3-dimethyl-2,4-dioxo-1,2,3,4-tetrahydrothieno[2,3-d]pyrimidin-5-yl)acetamide], the solubility ([1]; FaSSIF (fasted state simulated intestinal fluid), FaSSIF (pH 6.5)) is reported as 0.16 µg/mL (≈ 0.31 µM), the solubility ([1]; FeSSIF (fed state simulated intestinal fluid), FeSSIF (pH 5.0)) is reported as 0.06 µg/mL (≈ 0.116 µM) and the solubility ([1]; Water) is reported as 0.1 µg/mL (≈ 0.194 µM). The “% drug release after 15 minutes” value [3] was 0.40%.
